Experiment in all cases: NCI tumour cell line growth inhibition, 48 h
In experiment [1] the test system is NCI/ADR-RES.
The subject of experiment [2] is KM12.
For experiment [3], the system named is SK-MEL-28.
In experiment [4] the test system is MCF7.
Experiment [5] has as its system HOP-92.
For experiment [6], the system named is EKVX.
For experiment [7], the system named is CAKI-1.
Experiment [8] deals with Malme-3M.
The test system of experiment [9] is NCI-H460.
The subject of experiment [10] is LOX IMVI.
The subject of experiment [11] is HCT-15.
The test system of experiment [12] is OVCAR-8.
The test system of experiment [13] is NCI-H23.
Experiment [14] has as its system SN12C.
The subject of experiment [15] is ACHN.
Experiment [16] concerns OVCAR-5.
Experiment [17] relates to HOP-62.
Experiment [18] deals with SK-MEL-5.
Experiment [19] deals with HT-29.
Experiment [20] has as its system MDA-MB-435.

These results are taken from ChEMBL document CHEMBL1201862, “PubChem BioAssay data set” (2004).

Structures are written as SMILES.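 Test compounds were applied to cells in 96-well plates for 48 hours at 5 doses. GI50 = concentration required for 50% inhibition of growth.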 Active and inactive are the calls of the source. Rule as the data show it: active = GI50 up to about 1.1 µM and inactive = higher. Where only a bound is given, the exact number is not on record here.

For the compound `C=CC1(C)CC(=O)C2(O)C(C)(O1)C(OC(C)=O)C(O)C1C(C)(C)CCC(O)C12C` (stereo not drawn), the GI50 in [1] was 70.6 µM (inactive); in [2] it was 0.863 µM (active); in experiment [3], > 150 µM (inactive); in [4], 81.7 µM (inactive); in experiment [5], > 150 µM (inactive); in experiment [6] it was > 150 µM (inactive). Also, the GI50 was 1.37 µM (inactive) in [7]; > 150 µM (inactive) in experiment [8]; 89.1 µM (inactive) in experiment [9]; 60.8 µM (inactive) in experiment [10]; more than 150 µM in experiment [11]; > 76.4 µM (inactive) in [12]. In addition, the GI50 in experiment [13] is 115 µM (inactive); in experiment [14], 30.6 µM (inactive); in [15] it was > 100 µM (inactive); in experiment [16], 4.84 µM (inactive); in experiment [17], 59.7 µM (inactive); in experiment [18] it was 89.3 µM (inactive). Moreover, the GI50 in [19] is 49.8 µM (inactive).
With `CNC(=S)NNC(=O)c1c(C)nc2sccn12`, the GI50 in experiment [2], in experiment [3], in experiment [5], in experiment [6], in experiment [7] and in experiment [8] was > 100 µM (inactive) throughout. Moreover, the GI50 in experiment [9] was > 100 µM (inactive); in experiment [10] it was > 100 µM (inactive); in experiment [11], more than 100 µM; in experiment [12], > 100 µM (inactive); in experiment [13], > 100 µM (inactive); in [14] it was > 100 µM (inactive). Also, the GI50 in experiment [15], in [16], in experiment [17], in experiment [18] and in [19] was > 100 µM (inactive) throughout.
As to `CC12CCC(CC1)C(C)(C)O2` [EUCALYPTOL], the GI50 was 45.2 µM (inactive) in experiment [1]; 33.9 µM (inactive) in [2]; 62.4 µM (inactive) in experiment [3]; 0.644 µM (active) in experiment [4]; 24.3 µM (inactive) in [5]; 38 µM (inactive) in [6]. For the same compound, the GI50 in experiment [8] was 54.6 µM (inactive); in experiment [10], 7.43 µM (inactive); in experiment [11], 12.1 µM; in experiment [12], 24.4 µM (inactive); in [13], 16.9 µM (inactive); in experiment [14] it was 7.08 µM (inactive). Further, the GI50 was > 100 µM (inactive) in experiment [15]; 64.7 µM (inactive) in experiment [16]; 12.6 µM (inactive) in experiment [17]; 5.5 µM (inactive) in experiment [18]; 59.4 µM (inactive) in [19].
For `COc1ccc(NC(=O)Oc2cc(C)c3ccc(=O)cc-3o2)c(OC)c1.COc1ccc(NC(=O)Oc2ccc3c(C)cc(=O)oc3c2)c(OC)c1`, the GI50 was > 100 µM (inactive) in [1]; 78.7 µM (inactive) in experiment [2]; > 100 µM (inactive) in [3]; > 100 µM (inactive) in experiment [6]; > 100 µM (inactive) in [20]; > 100 µM (inactive) in experiment [7]. For the same compound, the GI50 in experiment [8] was > 100 µM (inactive); in experiment [9], > 100 µM (inactive); in [11], more than 100 µM; in experiment [12], > 100 µM (inactive); in experiment [13] it was > 100 µM (inactive); in experiment [14], > 100 µM (inactive). The GI50 in experiment [15], in experiment [16], in experiment [17], in experiment [18] and in [19] was > 100 µM (inactive) throughout.
`O=C(OCC1CO1)c1cccs1` (stereo not drawn): the GI50 is > 100 µM (inactive) in experiment [2]; > 100 µM (inactive) in experiment [3]; 65.6 µM (inactive) in experiment [5]; > 100 µM (inactive) in [6]; > 100 µM (inactive) in experiment [7]; > 100 µM (inactive) in experiment [8]. Moreover, the GI50 is > 100 µM (inactive) in [9]; > 100 µM (inactive) in [10]; more than 100 µM in experiment [11]; > 100 µM (inactive) in experiment [12]; > 100 µM (inactive) in experiment [13]; > 100 µM (inactive) in [14]. The GI50 in experiment [15], in experiment [16], in experiment [17], in [18] and in experiment [19] was > 100 µM (inactive) throughout.
With `O=C(O)c1ccc(C2=Cc3cc(Cl)ccc3OC2)cc1`, the GI50 in [2], in [3], in [5], in experiment [6], in experiment [7] and in experiment [8] was > 100 µM (inactive) throughout. Moreover, the GI50 in experiment [9] is > 100 µM (inactive); in experiment [10], > 100 µM (inactive); in experiment [11] it was more than 100 µM; in [12], > 100 µM (inactive); in experiment [13] it was > 100 µM (inactive); in [14] it was > 100 µM (inactive). The GI50 in experiment [15], in [16], in experiment [17], in [18] and in [19] was > 100 µM (inactive) in each case.
For the compound `Cn1c(=O)c2nc(Nc3ccccc3)[nH]c2n(C)c1=O`, the GI50 in experiment [2], in [3], in experiment [4], in experiment [5], in [6] and in experiment [20] was > 10 µM (inactive) each time. Moreover, the GI50 in [7] was > 10 µM (inactive); in experiment [8], > 10 µM (inactive); in [10] it was > 10 µM (inactive); in experiment [11], more than 10 µM; in [12], > 10 µM (inactive); in experiment [13] it was > 10 µM (inactive). For the same compound, the GI50 in [14], in experiment [17], in experiment [18] and in experiment [19] was > 10 µM (inactive) in each case.
As for `NC1=C(NC(=O)Cc2ccc(F)cc2)C(=O)c2ccccc2C1=O`, the GI50 in experiment [2] was > 76.9 µM (inactive); in experiment [3], > 100 µM (inactive); in experiment [5], 23.8 µM (inactive); in experiment [6] it was > 100 µM (inactive); in [7] it was > 100 µM (inactive); in experiment [8] it was 49.5 µM (inactive). Also, the GI50 in [9] is > 82.2 µM (inactive); in [10], 14.4 µM (inactive); in experiment [11] it was more than 100 µM; in [12], 33.1 µM (inactive); in [13] it was 12.2 µM (inactive); in experiment [14], > 100 µM (inactive). Also, the GI50 is 59 µM (inactive) in experiment [15]; > 100 µM (inactive) in experiment [16]; > 52.4 µM (inactive) in [17]; 14.4 µM (inactive) in experiment [18]; > 100 µM (inactive) in experiment [19].
Take `CCCCCCCCCCCCCC(=O)NO`: the GI50 in [2] was 9.42 µM (inactive); in experiment [3] it was 31.6 µM (inactive); in experiment [4], 3.8 µM (inactive); in [5], 15.8 µM (inactive); in [6] it was 21.4 µM (inactive); in experiment [20] it was 25.3 µM (inactive). Further, the GI50 in experiment [7] is 17.3 µM (inactive); in [8], 32.1 µM (inactive); in [9], 11.8 µM (inactive); in experiment [10], 3.99 µM (inactive); in [11] it was 3.72 µM; in [12], 12.1 µM (inactive). Also, the GI50 is 8.22 µM (inactive) in experiment [13]; 8.55 µM (inactive) in experiment [14]; 14.9 µM (inactive) in experiment [15]; 17.6 µM (inactive) in experiment [16]; 17.4 µM (inactive) in [17]; 9.64 µM (inactive) in experiment [18]. Moreover, in experiment [19], the GI50 is 8.99 µM (inactive).
For `CC(C)(C)OC(=O)N1N=NC2C3OC(CC3=O)C21` (stereo not drawn), the GI50 in experiment [2] was > 10 µM (inactive); in experiment [3], > 100 µM (inactive); in experiment [5] it was > 100 µM (inactive); in experiment [6], > 100 µM (inactive); in experiment [7], > 100 µM (inactive); in experiment [8], > 100 µM (inactive). Moreover, the GI50 was > 100 µM (inactive) in experiment [9]; > 100 µM (inactive) in [10]; more than 100 µM in experiment [11]; > 100 µM (inactive) in experiment [12]; > 100 µM (inactive) in experiment [13]; > 100 µM (inactive) in [14]. The GI50 in experiment [15] is > 100 µM (inactive); in [16], > 100 µM (inactive); in experiment [17], > 100 µM (inactive); in experiment [18], > 10 µM (inactive); in experiment [19], > 100 µM (inactive).
`CN1C(=O)CC2CCC(=O)N2c2cccnc21` (stereo not drawn): the GI50 in [1], in [2], in experiment [3], in experiment [4], in experiment [6] and in [20] was > 100 µM (inactive) each time. Also, the GI50 in [7] is > 100 µM (inactive); in experiment [8], > 100 µM (inactive); in experiment [9], > 100 µM (inactive); in experiment [10], > 100 µM (inactive); in [11] it was more than 100 µM; in [12], > 100 µM (inactive). For the same compound, the GI50 in experiment [13], in experiment [14], in experiment [15], in [17], in [18] and in experiment [19] was > 100 µM (inactive) throughout.
Take `CN(C)CCOc1cccc2c1C(=O)c1ccccc1C2=O`: the GI50 is 10.8 µM (inactive) in experiment [2]; 15.3 µM (inactive) in experiment [3]; 11.8 µM (inactive) in [5]; 18.4 µM (inactive) in [6]; 14.7 µM (inactive) in [7]; 13.6 µM (inactive) in [8]. For the same compound, the GI50 was 5.36 µM (inactive) in [9]; 5.75 µM (inactive) in experiment [10]; 12.2 µM in experiment [11]; 9.48 µM (inactive) in experiment [12]; 11.8 µM (inactive) in experiment [13]; 9.06 µM (inactive) in [14]. The GI50 in experiment [15] is 12 µM (inactive); in experiment [16], 16.5 µM (inactive); in experiment [17], 13.6 µM (inactive); in experiment [18], 12.8 µM (inactive); in experiment [19], 6.37 µM (inactive).
